Measurements taken from ChEMBL document CHEMBL4385660, “5-Chloro-2-thiophenyl-1,2,3-triazolylmethyldihydroquinolines as dual inhibitors of Mycobacterium tuberculosis and influenza virus: Synthesis and evaluation” (Bioorg Med Chem Lett, 2019).
≈ marks a conversion by molar mass, not a printed value.

Assays:
[1] = system: Mycobacterium tuberculosis; assay: Antimycobacterial against Mycobacterium tuberculosis H37Rv incubated for 7 days by MABA assay; type: functional; conditions: 168 h
[2] = system: Influenza A virus; assay: Antiviral activity against Influenza A virus (A/Puerto Rico/8/1934(H1N1)) infected in MDCK cells assessed as reduction in virus titer using cells pre-treated with compound followed by virus infection for 24 hrs by hemagglutination test; type: functional, organism-based
[3] = Cytotoxicity in MDCK cells assessed as reduction in cell viability incubated for 48 hrs by MTT assay; type: cell-based, Canis lupus familiaris; conditions: dog
[4] = Selectivity index, ratio of CC50 for cytotoxicity in MDCK cells to IC50 for antiviral activity against Influenza A virus (A/Puerto Rico/8/1934(H1N1)) infected in MDCK cells; type: toxicity, cell-based; conditions: dog, read-out: Ratio CC50/IC50
[5] = system: Mycobacterium tuberculosis; assay: Antimycobacterial against Mycobacterium tuberculosis; type: functional

Row | Compound | MIC [1] [µg/mL] | IC50 [2] [µg/mL] | CC50 at 48 h [3] [µg/mL] | selectivity ratio [4] | MIC [5] [µg/mL]
1 | NNC(=O)c1ccncc1 [ISONIAZID] | 0.1 (≈ 0.729 µM) | – | – | – | –
2 | COc1ccc(-c2cn(CC3=C(Cl)c4ccc(-c5cccs5)nc4CC3)nn2)cc1 | 25 (≈ 57.5 µM) | 160 (≈ 368 µM) | > 300 | 2 | –
3 | CN(C)CCc1ccc(-c2cc3cc(Br)ccc3nc2OCc2cccc3ccccc23)cc1 | – | – | – | – | 0.43 (≈ 0.841 µM)
4 | CCC(CC)O[C@@H]1C=C(C(=O)O)C[C@H](N)[C@H]1NC(C)=O [OSELTAMIVIR CARBOXYLATE] | – | 0.06 (≈ 0.211 µM) | > 30 | > 500 | –
5 | O=[N+]([O-])c1ccc(-c2cn(CC3=C(Cl)c4ccc(-c5cccs5)nc4CC3)nn2)cc1 | 12.5 (≈ 27.8 µM) | > 30 | 40 (≈ 88.9 µM) | 1 | –
6 | CC[C@@H](CO)NCCN[C@@H](CC)CO [ETHAMBUTOL] | 3.13 (≈ 15.3 µM) | – | – | – | –
7 | ClC1=C(Cn2cc(C3CC3)nn2)CCc2nc(-c3cccs3)ccc21 | 6.25 (≈ 16.9 µM) | > 300 | > 300 | 1 | –
8 | ClC1=C(Cn2cc(-c3ccc(Cl)c(Cl)c3)nn2)CCc2nc(-c3cccs3)ccc21 | 25 (≈ 52.8 µM) | 26 (≈ 54.9 µM) | > 300 | 12 | –
9 | CC(C)(C)c1ccc(-c2cn(CC3=C(Cl)c4ccc(-c5cccs5)nc4CC3)nn2)cc1 | 3.12 (≈ 6.77 µM) | 64 (≈ 139 µM) | 172 (≈ 373 µM) | 3 | –
10 | CO[C@H]1/C=C/O[C@@]2(C)Oc3c(C)c(O)c4c(O)c(c(/C=N/N5CCN(C)CC5)c(O)c4c3C2=O)NC(=O)/C(C)=C\C=C\[C@H](C)[C@H](O)[C@@H](C)[C@@H](O)[C@@H](C)[C@H](OC(C)=O)[C@@H]1C [RIFAMPIN] | 0.2 (≈ 0.243 µM) | – | – | – | –
11 | CC(N)C12CC3CC(CC(C3)C1)C2 (configuration not stated) [RIMANTADINE] | – | 10 (≈ 55.8 µM) | 62 (≈ 346 µM) | 6 | –
12 | Fc1ccc(-c2cn(CC3=C(Cl)c4ccc(-c5cccs5)nc4CC3)nn2)c(F)c1 | 25 (≈ 56.7 µM) | 165 (≈ 374 µM) | 188 (≈ 426 µM) | 1 | –
13 | ClC1=C(Cn2cc(-c3cc4ccccc4c4ccccc34)nn2)CCc2nc(-c3cccs3)ccc21 | 25 (≈ 49.5 µM) | > 300 | > 300 | 1 | –
14 | FC(F)(F)c1cc(-c2cn(CC3=C(Cl)c4ccc(-c5cccs5)nc4CC3)nn2)cc(C(F)(F)F)c1 | 25 (≈ 46.2 µM) | > 30 | 35 (≈ 64.7 µM) | 1 | –
15 | ClC1=C(Cn2cc(-c3ccsc3)nn2)CCc2nc(-c3cccs3)ccc21 | 25 (≈ 60.8 µM) | 195 (≈ 475 µM) | > 300 | 15 | –
16 | CN(C)Cc1ccc(-c2cc3cc(Br)ccc3nc2OCc2ccncc2)cc1 | – | – | – | – | 0.43 (≈ 0.959 µM)
17 | CCCCCc1cn(CC2=C(Cl)c3ccc(-c4cccs4)nc3CC2)nn1 | 6.25 (≈ 15.7 µM) | 17 (≈ 42.6 µM) | 50 (≈ 125 µM) | 3 | –
18 | O=C1c2ccccc2C(=O)N1Cc1cn(CC2=C(Cl)c3ccc(-c4cccs4)nc3CC2)nn1 | 25 (≈ 51.2 µM) | 200 (≈ 410 µM) | > 300 | 2 | –
19 | Fc1ccc(-c2cn(CC3=C(Cl)c4ccc(-c5cccs5)nc4CC3)nn2)cc1 | 12.5 (≈ 29.6 µM) | 80 (≈ 189 µM) | 100 (≈ 236 µM) | 1 | –
20 | CC(C)(C)c1nn(-c2cc(Cl)cc(Cl)c2OCc2cn(CC3=C(Cl)c4ccc(-c5cccs5)nc4CC3)nn2)c(=O)o1 | 25 (≈ 38.8 µM) | > 300 | > 300 | 1 | –
21 | FC(F)(F)c1ccccc1-c1cn(CC2=C(Cl)c3ccc(-c4cccs4)nc3CC2)nn1 | 12.5 (≈ 26.4 µM) | 160 (≈ 338 µM) | > 300 | 2 | –
22 | FC(F)(F)Oc1ccc(-c2cn(CC3=C(Cl)c4ccc(-c5cccs5)nc4CC3)nn2)cc1 | 25 (≈ 51.1 µM) | 65 (≈ 133 µM) | > 300 | 5 | –
23 | O=C(O)c1cn(C2CC2)c2cc(N3CCNCC3)c(F)cc2c1=O [CIPROFLOXACIN] | 1.56 (≈ 4.71 µM) | – | – | – | –
